From paper PMC3353862
Values after ≈ are worked out from the molar mass of the structure shown.

How the values were obtained:
[1] = tested on: S. pneumoniae; test: Broth microdilution MIC testing; assay type: cell-based, Streptococcus pneumoniae; details: for MIC S. pneumo: S. pneumoniae; for MIC: Streptococcus pneumoniae, read-out: MIC S. pneumo
[2] = tested on: E. faecalis; test: Broth microdilution MIC testing; assay type: cell-based, Enterococcus faecalis; details: for MIC E. fae: E. faecalis; for MIC: Enterococcus faecalis, read-out: MIC E. fae
[3] = tested on: panel of bacteria; test: Antibacterial activity against the panel of bacteria (MIC, overall); assay type: cell-based; details: for antibacterial activity: panel of bacteria; as to MIC (antibacterial activity grade): key: +: poor; ++: moderate; +++: good antibacterial activity
[4] = tested on: E. coli modified with PMBN; test: Broth microdilution MIC testing; assay type: cell-based, Escherichia coli; details: for MIC E. coli +PMBP: E. coli modified with PMBN; for MIC: Escherichia coli, read-out: MIC E. coli +PMBP
[5] = tested on: E. coli tolC mutants; test: Broth microdilution MIC testing; assay type: cell-based, Escherichia coli; details: for MIC E. coli tolC: E. coli tolC mutants; for MIC: Escherichia coli, read-out: MIC E. coli tolC
[6] = tested on: S. aureus; test: Broth microdilution MIC testing; assay type: cell-based, Staphylococcus aureus; details: for MIC: Staphylococcus aureus, read-out: MIC S. aureus
[7] = tested on: H. influenzae; test: Broth microdilution MIC testing; assay type: cell-based, Haemophilus influenzae; details: for MIC H. flu: H. influenzae; for MIC: Haemophilus influenzae, read-out: MIC H. flu
[8] = tested on: bacterial protein synthesis (aminoacylation/translation system); test: aminoacylation/translation (A/T) assay; assay type: biochemical; details: for IC50: A/T assay, Table 1, read-out: IC50; for fold improvement in the IC50: relative to the original two compounds
[9] = tested on: M. catarrhalis; test: Broth microdilution MIC testing; assay type: cell-based, Moraxella catarrhalis; details: for MIC: Moraxella catarrhalis

## CN(C)Cc1ccc(CN2CCc3nc(-c4ccccn4)[nH]c(=O)c3C2)cc1 [Compound 323201]
[1]
  MIC S. pneumo: > 128 µg/mL
[2]
  MIC E. fae: > 128 µg/mL
[3]
  antibacterial activity: all antibacterial activity was lost
[4]
  MIC E. coli +PMBP: > 128 µg/mL
[5]
  MIC E. coli tolC: > 128 µg/mL
[6]
  MIC S. aureus: > 128 µg/mL
[7]
  MIC H. flu: > 128 µg/mL
[8]
  IC50: 2.1 µM
[9]
  MIC M. cat: > 128 µg/mL

## CN(C)c1ccc(CN2CCc3nc(-c4ccccn4)[nH]c(=O)c3C2)cc1 [Compound 323218]
[1]
  MIC S. pneumo: 32 µg/mL (≈ 88.5 µM)
[2]
  MIC E. fae: > 128 µg/mL
[3]; Table 2
  MIC (antibacterial activity grade): +
[4]
  MIC E. coli +PMBP: 64 µg/mL (≈ 177 µM)
[5]
  MIC E. coli tolC: 128 µg/mL (≈ 354 µM)
[6]
  MIC S. aureus: > 128 µg/mL
[7]
  MIC H. flu: 16 µg/mL (≈ 44.3 µM)
[8]
  IC50: 0.24 µM
  fold improvement in the IC50: five and tenfold
[9]
  MIC M. cat: 4 µg/mL (≈ 11.1 µM)

## COc1cc(CN2CCc3nc(-c4ccccn4)[nH]c(=O)c3C2)cc(OC)c1OC [Compound 323221]
[1]
  MIC S. pneumo: > 128 µg/mL
[2]
  MIC E. fae: > 128 µg/mL
[3]
  antibacterial activity: abolished both biochemical and microbiological activities
[4]
  MIC E. coli +PMBP: > 128 µg/mL
[5]
  MIC E. coli tolC: > 128 µg/mL
[6]
  MIC S. aureus: > 128 µg/mL
[7]
  MIC H. flu: > 128 µg/mL
[8]
  biochemical activity in the A/T assay: abolished both biochemical and microbiological activities
  IC50: > 300 µM
[9]
  MIC M. cat: > 128 µg/mL

## O=c1[nH]c(-c2ccccn2)nc2c1CN(Cc1cc3c(cc1Cl)OCO3)CC2 [Compound 323227]
[1]
  MIC S. pneumo: 64 µg/mL (≈ 161 µM)
[2]
  MIC E. fae: > 128 µg/mL
[3]; Table 2
  MIC (antibacterial activity grade): +
[4]
  MIC E. coli +PMBP: > 128 µg/mL
[5]
  MIC E. coli tolC: 64 µg/mL (≈ 161 µM)
[6]
  MIC S. aureus: > 128 µg/mL
[7]
  MIC H. flu: 32 µg/mL (≈ 80.6 µM)
[8]
  IC50: 0.37 µM
  fold improvement in the IC50: three to sevenfold
[9]
  MIC M. cat: 8 µg/mL (≈ 20.2 µM)

## CC(C)Oc1cccc(CN2CCc3nc(-c4ccccn4)[nH]c(=O)c3C2)c1 [Compound 323229]
[1]
  MIC S. pneumo: 8 µg/mL (≈ 21.3 µM)
[2]
  MIC E. fae: 64 µg/mL (≈ 170 µM)
[3]; Table 2
  MIC (antibacterial activity grade): ++
[4]
  MIC E. coli +PMBP: 16 µg/mL (≈ 42.5 µM)
[5]
  MIC E. coli tolC: 16 µg/mL (≈ 42.5 µM)
[6]
  MIC S. aureus: 64 µg/mL (≈ 170 µM)
[7]
  MIC H. flu: 8 µg/mL (≈ 21.3 µM)
[8]
  IC50: 0.53 µM
[9]
  MIC M. cat: 0.5 µg/mL (≈ 1.33 µM)

## Oc1nc(-c2ccccn2)nc2c1CCN(Cc1ccc(Cl)cc1)C2 [Compound 323338]
[1]
  MIC: 4 µg/mL (≈ 11.3 µM)
[2]
  MIC: 16 µg/mL (≈ 45.3 µM)
[3]; Table 3
  MIC (antibacterial activity grade): +++
[4]
  MIC: 8 µg/mL (≈ 22.7 µM)
[5]
  MIC: 4 µg/mL (≈ 11.3 µM)
[6]
  MIC: 16 µg/mL (≈ 45.3 µM)
[7]
  MIC: 2 µg/mL (≈ 5.67 µM)
[8]
  IC50: 64.4 µM
[9]
  MIC: ≤ 0.12 µg/mL

## O=c1[nH]c(-c2ccccn2)nc2c1CN(Cc1cc(Cl)cc(Cl)c1)CC2 [Compound 323339]
[1]
  MIC S. pneumo: 4 µg/mL (≈ 10.3 µM)
[2]
  MIC E. fae: 64 µg/mL (≈ 165 µM)
[3]; Table 3
  MIC (antibacterial activity grade): +++
[4]
  MIC E. coli +PMBP: 2 µg/mL (≈ 5.16 µM)
[5]
  MIC E. coli tolC: 2 µg/mL (≈ 5.16 µM)
[6]
  MIC S. aureus: 32 µg/mL (≈ 82.6 µM)
[7]
  MIC H. flu: 8 µg/mL (≈ 20.7 µM)
[8]
  IC50: 19 µM
[9]
  MIC M. cat: ≤0.12 µg/mL

## O=c1[nH]c(-c2ccccn2)nc2c1CN(Cc1cc(Cl)ccc1Cl)CC2 [Compound 323340]
[1]
  MIC S. pneumo: 2 µg/mL (≈ 5.16 µM)
[2]
  MIC E. fae: 16 µg/mL (≈ 41.3 µM)
[3]; Table 3
  MIC (antibacterial activity grade): +++
[3]
  antibacterial activity: good antibacterial activity
[4]
  MIC E. coli +PMBP: 2 µg/mL (≈ 5.16 µM)
[5]
  MIC E. coli tolC: 1 µg/mL (≈ 2.58 µM)
[6]
  MIC S. aureus: 4 µg/mL (≈ 10.3 µM)
[7]
  MIC H. flu: 1 µg/mL (≈ 2.58 µM)
[8]
  biochemical activity in the A/T assay: no inhibitory effect
  IC50: > 300 µM
[9]
  MIC M. cat: ≤0.12 µg/mL

## O=c1[nH]c(-c2ccccn2)nc2c1CN(Cc1ccc(Br)cc1)CC2 [Compound 323341]
[1]
  MIC S. pneumo: 4 µg/mL (≈ 10.1 µM)
[2]
  MIC E. fae: 32 µg/mL (≈ 80.5 µM)
[3]; Table 3
  MIC (antibacterial activity grade): +++
[4]
  MIC E. coli +PMBP: 16 µg/mL (≈ 40.3 µM)
[5]
  MIC E. coli tolC: 8 µg/mL (≈ 20.1 µM)
[6]
  MIC S. aureus: 16 µg/mL (≈ 40.3 µM)
[7]
  MIC H. flu: 2 µg/mL (≈ 5.03 µM)
[8]
  IC50: 41.4 µM
[9]
  MIC M. cat: ≤0.12 µg/mL

## O=c1[nH]c(-c2ccccn2)nc2c1CN(Cc1ccc(Cl)c(Cl)c1)CC2 [Compound 323342]
[1]
  MIC S. pneumo: 2 µg/mL (≈ 5.16 µM)
[2]
  MIC E. fae: 32 µg/mL (≈ 82.6 µM)
[3]; Table 3
  MIC (antibacterial activity grade): +++
[4]
  MIC E. coli +PMBP: 16 µg/mL (≈ 41.3 µM)
[5]
  MIC E. coli tolC: 4 µg/mL (≈ 10.3 µM)
[6]
  MIC S. aureus: 32 µg/mL (≈ 82.6 µM)
[7]
  MIC H. flu: 2 µg/mL (≈ 5.16 µM)
[8]
  IC50: 28.9 µM
[9]
  MIC M. cat: ≤0.12 µg/mL

## O=c1[nH]c(-c2ccccn2)nc2c1CN(Cc1ccc(Cl)cc1Cl)CC2 [Compound 323343]
[1]
  MIC S. pneumo: 2 µg/mL (≈ 5.16 µM)
[2]
  MIC E. fae: 32 µg/mL (≈ 82.6 µM)
[3]; Table 3
  MIC (antibacterial activity grade): +++
[4]
  MIC E. coli +PMBP: 2 µg/mL (≈ 5.16 µM)
[5]
  MIC E. coli tolC: 4 µg/mL (≈ 10.3 µM)
[6]
  MIC S. aureus: 8 µg/mL (≈ 20.7 µM)
[7]
  MIC H. flu: 1 µg/mL (≈ 2.58 µM)
[8]
  IC50: 8.24 µM
[9]
  MIC M. cat: ≤0.12 µg/mL

## O=c1[nH]c(-c2ccccn2)nc2c1CN(Cc1cccc(Cl)c1Cl)CC2 [Compound 323344]
[1]
  MIC S. pneumo: 2 µg/mL (≈ 5.16 µM)
[2]
  MIC E. fae: 32 µg/mL (≈ 82.6 µM)
[3]; Table 3
  MIC (antibacterial activity grade): +++
[4]
  MIC E. coli +PMBP: 4 µg/mL (≈ 10.3 µM)
[5]
  MIC E. coli tolC: 1 µg/mL (≈ 2.58 µM)
[6]
  MIC S. aureus: 8 µg/mL (≈ 20.7 µM)
[7]
  MIC H. flu: 4 µg/mL (≈ 10.3 µM)
[8]
  IC50: 11.6 µM
[9]
  MIC M. cat: ≤0.12 µg/mL

## Cn1c(-c2ccccn2)nc2c(c1=O)CN(Cc1ccc(Cl)cc1)CC2 [Compound 323345]
[1]
  MIC: 128 µg/mL (≈ 349 µM)
[2]
  MIC: > 128 µg/mL
[3]
  antibacterial activity: abolished most biochemical and antibacterial activities
[4]
  MIC: 128 µg/mL (≈ 349 µM)
[5]
  MIC: 128 µg/mL (≈ 349 µM)
[6]
  MIC: > 128 µg/mL
[7]
  MIC: 64 µg/mL (≈ 174 µM)
[8]
  biochemical activity in the A/T assay: abolished most biochemical and antibacterial activities
  IC50: > 300 µM
[9]
  MIC: 32 µg/mL (≈ 87.2 µM)
